What was measured:
hα1-Gly/ZAC = assay: TEVC in oocytes expressing hα1-Gly/ZAC chimera; type: cell-based, human; details: pH 4.5; n = 5
Method: (§1) The recordings were performed at room temperature.
(§2) Analysis of the data from the TEVC recordings were performed using Clampfit software version 10.5 (Molecular Devices, Crawley, UK) and GraphPad Prism version 7.0c (GraphPad Software, La Jolla, CA). Unless otherwise stated, the inward currents induced by agonists in oocytes were normalized to the maximal response elicited by a specific agonist (agonist Imax) on each oocyte. Concentration-response and concentration-inhibition curves were fitted in GraphPad Prism by nonlinear regression using the equation for sigmoidal dose-response with variable slope. Each data point represents the mean ± S.E.M. value of recordings performed on at least five oocytes in total from at least two different batches. For the data where statistical analysis was performed, a one-way ANOVA was used. The null hypothesis was rejected at P < 0.05, and the differences between the means were analyzed by Tukey’s multiple comparisons test.
(§3) Initially, we constructed four chimeric subunits fusing the ZAC ECD or TMD-ICD with the complementary domains from either the m5-HT3A or the hα1 GlyR subunit: ZAC/m5-HT3A, m5-HT3A/ZAC, ZAC/hα1-Gly and hα1-Gly/ZAC (Fig. 1A). […] (Fig. 1A).

ZAC/m5-HT3A-II = assay: TEVC in oocytes expressing ZAC/m5-HT3A-II chimera; type: cell-based, mouse/human; details: Zn^2+ 10 mM; H^+ pH 4.0; data not shown
Method: as §1

ZAC^H210A = target: T1, ZAC^H210A (Homo sapiens, UniProt Q401N2, A152T/H144A); assay: TEVC in oocytes, His120 Ala mutant; type: cell-based; details: pH 4.0
T1 construct: expressed in transfected cells; host or cells: Xenopus oocytes injected with cRNA (pUNIV vector)
Method: as §1
as §2, with “For the data where statistical analysis was performed, a one-way ANOVA was used.” left out
(§4) The putative involvement of candidate residues in Clusters 1, 2, 3 and 4 in Zn^2+ binding to ZAC was investigated in by an elaborate alanine mutagenesis scanning. […] The determined IpH 4.0 value was used in part as a control and in part to enable the distinction of ZAC mutants non-responsive to Zn^2+ due to elimination of their ability to bind the metal ion from those where the mutation had eliminated cell surface expression and/or disrupted overall functionality of the receptor complex. […]

ZAC/hα1-Gly = assay: TEVC in oocytes expressing ZAC/hα1-Gly chimera; type: cell-based, human
Method: as §1, §2, §3

m5-HT3A/ZAC = target: T2, m5-HT3A/ZAC (Mus musculus / Homo sapiens, UniProt P23979); assay: TEVC in oocytes expressing m5-HT3A/ZAC chimera; type: cell-based; details: pH 4.5; n = 4
T2 sequence (P23979 24-246): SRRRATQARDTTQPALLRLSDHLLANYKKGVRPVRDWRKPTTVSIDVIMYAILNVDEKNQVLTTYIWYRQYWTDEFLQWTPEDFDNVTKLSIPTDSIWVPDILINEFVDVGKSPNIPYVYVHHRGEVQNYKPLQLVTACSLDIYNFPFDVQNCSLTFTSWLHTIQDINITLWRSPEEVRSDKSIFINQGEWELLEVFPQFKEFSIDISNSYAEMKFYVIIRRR
T2 sequence (Q401N2 231-412 partner): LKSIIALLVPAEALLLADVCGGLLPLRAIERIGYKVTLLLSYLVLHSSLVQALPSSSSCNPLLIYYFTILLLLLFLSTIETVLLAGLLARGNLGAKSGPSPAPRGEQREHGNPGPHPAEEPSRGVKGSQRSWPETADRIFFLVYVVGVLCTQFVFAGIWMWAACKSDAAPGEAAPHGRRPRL
From the text: (§5) The construction of the ZAC-pUNIV plasmid (encoding for the human WT ZAC that contains a Thr in position 128) has been described previously. The m5-HT3A and hα1 GlyR cDNAs were subcloned from their original vectors into pUNIV (Addgene, Watertown, MA) using NheI and EcoRI as restriction enzymes. […] The C-terminus modifications in these four chimeras were introduced in their cDNAs in the same way. Point mutations were introduced in cDNAs by use of the QuikChange mutagenesis kit (Stratagene, San Diego, CA). The validity and absence of unwanted mutations in the constructed cDNAs was verified by DNA sequencing (Macrogen Europe, Amsterdam, The Netherlands).
(§6) All cDNAs used for cRNA synthesis were inserted in the pUNIV vector. The cDNAs were linearized and subsequently transcribed and capped using the mMessage mMachine T7 RNA transcription kit (Ambion, Waltham, MA). […] Oocytes were incubated in a sterile modified Barth’s solution [88 mM NaCl, 1 mM KCl, 15 mM HEPES (pH 7.5), 2.4 mM NaHCO3, 0.41 mM CaCl2, 0.82 mM MgSO4, 0.3 mM Ca(NO3)2, 100 U/ml penicillin and 100 μg/ml streptomycin] at 16–18 °C. Based on experience gained with WT ZAC in a recent study, all TEVC recordings were performed two days after cRNA injection.
(§7) On the day of the TEVC recording, all compound dilutions were prepared in a saline solution [115 mM NaCl, 2.5 mM KCl, 10 mM MOPS (pH 7.5), 1.8 mM CaCl2, 0.1 mM MgCl2], and pH was adjusted to 7.5 (if needed). Oocytes were placed in a recording chamber continuously perfused with this saline solution, and the compounds were applied in the perfusate. Both voltage and current electrodes were agar-plugged with 3 M KCl with a resistance of 0.2–2.0 MΩ. Oocytes were voltage-clamped at −50 mV (except in the studies of the chimeras and their parent receptors where they were clamped at −60 mV, section 3.1), by a Gene Clamp 500B amplifier, and current signals were digitized by a Digidata 1322A (both from Axon Instruments, Union City, CA). Currents were recorded using pCLAMP 10 (Molecular Devices, Sunnyvale, CA). The recordings were performed at room temperature.
(§8) In all recordings, compounds or compound combinations were applied in the bath until the peak current decayed to a steady state (up to 30 s). […] The antagonist properties of compounds were determined by pre-application of the compound to the perfusate for 30 s followed by co-application of the compound and the agonist. In all recordings, washes of 1–5 min were executed between the ligand applications, the length of the washes depending on the agonist concentrations used and on the return to baseline current amplitude.
as §2

ZAC^D116A/DH8A/H210A = target: T3, ZAC^D116A/DH8A/H210A (Homo sapiens, UniProt Q401N2, A152T/D140A/D142A/H144A); assay: TEVC in oocytes, Cluster 1 triple mutant; type: cell-based; details: pH 4.0
T3 construct: expressed in transfected cells; host or cells: Xenopus oocytes injected with cRNA (pUNIV vector)
Method: as §1
as §2, with “For the data where statistical analysis was performed, a one-way ANOVA was used.” left out
as §4

ZAC/m5-HT3A = assay: TEVC in oocytes expressing ZAC/m5-HT3A chimera; type: cell-based, mouse/human; details: pH 4.5; n = 5
Method: as §1, §2, §3

[1] = target: T4, ZAC^E24A/E89A/D105A/D108A/E130A (Homo sapiens, UniProt Q401N2, A152T/D129A/D132A/E113A/E154A/E48A); assay: TEVC in oocytes, Cluster 3 quintuple mutant; type: cell-based; details: H^+ pH 4.0; Zn^2+ 10 mM; data not shown
T4 construct: expressed in transfected cells; host or cells: Xenopus oocytes injected with cRNA (pUNIV vector)
Method: as §1
as §2, with “For the data where statistical analysis was performed, a one-way ANOVA was used.” left out
as §4

[2] = target: T5, ZAC^E136A/H139A/D143A/H144A (Homo sapiens, UniProt Q401N2, A152T/D167A/E160A/H163A/H168A); assay: TEVC in oocytes, Cluster 2 quadruple mutant; type: cell-based; details: Zn^2+ 10 mM; H^+ pH 4.0; data not shown
T5 construct: expressed in transfected cells; host or cells: Xenopus oocytes injected with cRNA (pUNIV vector)
Method: as §1
as §2, with “For the data where statistical analysis was performed, a one-way ANOVA was used.” left out
as §4

WT ZAC = target: T6, WT ZAC (Homo sapiens, UniProt Q401N2, A152T); assay: TEVC in Xenopus oocytes expressing WT ZAC; type: cell-based; details: PTX at concentrations up to 100 μM; Zn^2+ 1 mM
T6 construct: expressed in transfected cells; host or cells: Xenopus oocytes injected with cRNA (pUNIV vector)
T6 sequence (Q401N2 26-412 A152T): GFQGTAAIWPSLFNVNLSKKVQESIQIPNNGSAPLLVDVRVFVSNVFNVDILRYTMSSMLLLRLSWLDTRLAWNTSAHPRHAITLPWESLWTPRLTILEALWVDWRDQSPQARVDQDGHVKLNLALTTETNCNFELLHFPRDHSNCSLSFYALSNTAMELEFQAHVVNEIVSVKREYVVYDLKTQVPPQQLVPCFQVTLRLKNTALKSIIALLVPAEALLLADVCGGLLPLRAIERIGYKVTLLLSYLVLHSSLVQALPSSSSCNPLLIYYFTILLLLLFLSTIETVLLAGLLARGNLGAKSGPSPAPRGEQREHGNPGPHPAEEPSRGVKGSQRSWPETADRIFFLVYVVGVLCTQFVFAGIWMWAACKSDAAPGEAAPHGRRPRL
Method: as §1, §2

WT hα1 GlyR = target: T7, WT hα1 GlyR (Homo sapiens, UniProt P23415); type: cell-based
T7 construct: expressed in transfected cells; host or cells: Xenopus oocytes injected with cRNA (pUNIV vector)
T7 sequence (P23415 29-457): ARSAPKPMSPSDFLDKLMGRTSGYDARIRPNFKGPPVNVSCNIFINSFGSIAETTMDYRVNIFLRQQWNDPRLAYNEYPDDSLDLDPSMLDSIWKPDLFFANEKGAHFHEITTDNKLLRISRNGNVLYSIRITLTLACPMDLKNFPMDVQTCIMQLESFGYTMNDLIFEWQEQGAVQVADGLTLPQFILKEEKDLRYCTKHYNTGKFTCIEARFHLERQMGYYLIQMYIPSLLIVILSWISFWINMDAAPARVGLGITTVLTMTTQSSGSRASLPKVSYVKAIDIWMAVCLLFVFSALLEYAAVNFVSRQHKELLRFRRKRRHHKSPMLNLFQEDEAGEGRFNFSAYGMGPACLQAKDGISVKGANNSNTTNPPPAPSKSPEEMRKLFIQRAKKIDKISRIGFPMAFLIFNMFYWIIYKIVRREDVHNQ
From the text: as §5, §6, §7, §8
as §2, with “For the data where statistical analysis was performed, a one-way ANOVA was used.” left out

T4 sequence (Q401N2 26-412 E48A/E113A/D129A/D132A/A152T/E154A): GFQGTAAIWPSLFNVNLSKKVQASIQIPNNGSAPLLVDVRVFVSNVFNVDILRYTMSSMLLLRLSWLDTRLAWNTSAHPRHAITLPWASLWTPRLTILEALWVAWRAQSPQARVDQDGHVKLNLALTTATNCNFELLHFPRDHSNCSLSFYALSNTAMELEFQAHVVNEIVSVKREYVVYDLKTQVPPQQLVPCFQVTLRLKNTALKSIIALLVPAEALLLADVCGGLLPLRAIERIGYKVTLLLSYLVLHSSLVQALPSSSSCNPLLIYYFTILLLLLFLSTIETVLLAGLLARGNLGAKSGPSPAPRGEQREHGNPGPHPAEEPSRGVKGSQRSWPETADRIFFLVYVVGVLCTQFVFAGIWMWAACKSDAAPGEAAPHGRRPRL
T1 sequence (Q401N2 26-412 H144A/A152T): as the sequence (Q401N2 26-412 E48A/E113A/D129A/D132A/A152T/E154A) above, with A23E, A88E, A104D, A107D, H119A, A129E counted along it
T5 sequence (Q401N2 26-412 A152T/E160A/H163A/D167A/H168A): as the sequence (Q401N2 26-412 E48A/E113A/D129A/D132A/A152T/E154A) above, with A23E, A88E, A104D, A107D, A129E, E135A, H138A, D142A, H143A counted along it
T3 sequence (Q401N2 26-412 D140A/D142A/H144A/A152T): as the sequence (Q401N2 26-412 E48A/E113A/D129A/D132A/A152T/E154A) above, with A23E, A88E, A104D, A107D, D115A, D117A, H119A, A129E counted along it

| Compound | IpH 4.5 ± S.E.M. (hα1-Gly/ZAC) | agonist-evoked current (ZAC/m5-HT3A-II) | IpH 4.0 (ZAC^H210A) | agonist-evoked current (ZAC/hα1-Gly; pH 4.5) | IpH 4.5 ± S.E.M. (m5-HT3A/ZAC) | IpH 4.0 range (ZAC^D116A/DH8A/H210A) | IpH 4.5 ± S.E.M. (ZAC/m5-HT3A) | agonist responsiveness [1] | agonist responsiveness [2] | current during 30-s preincubation of antagonist (ZAC/hα1-Gly; PTX preincubation) | IC50 (ZAC/hα1-Gly; inhibition of Zn^2+ EC90 (10 μM)-induced currents, read-out: estimated IC50) | inhibition of Zn^2+ EC90-mediated signalling (WT ZAC) | current during 30-s preincubation of antagonist (WT hα1 GlyR; PTX preincubation) | IC50 (WT hα1 GlyR; inhibition of Gly EC90 (100 μM)-elicited responses, read-out: estimated IC50) |
| --- | --- | --- | --- | --- | --- | --- | --- | --- | --- | --- | --- | --- | --- | --- |
| [H+] [H^+] | −0.0045 ± 0.0019 μA | did not evoke significant currents | 30–110 nA | robust currents | −0.0027 ± 0.0007 μA | 40–100 nA | −0.0033 ± 0.0003 μA | non-responsive | non-responsive |  |  |  |  |  |
| picrotoxin [PTX] |  |  |  |  |  |  |  |  |  | substantial outward currents | > 1000 nM | did not inhibit | no such outward currents | < 1000 nM |
